# Assay results published in patent US20140271742A1, “SKIN TANNING USING PEPTIDES AND OTHER COMPOSITIONS” (priority 2013, published 2014).
# Assays:
# [1] = Laser Doppler capillary blood flow in humans, 10,000 ppm NO in closed Hilltop chamber (Example 5); type: in vivo, human; details: applied to the skin at 1/10% in alcohol
# Description: The formulation used in these studies contained nitric oxide dispersed in a lipid matrix. […] Nitric oxide is a very rapid acting molecule, and these studies used a system that employed laser Doppler with a covered chamber. The formulation was placed into the chamber and then attached to the skin by an adhesive layer on the covering. This provided a stable measuring device as determined by multiple normal evaluations of the capillary blood flow without treatment of nitric oxide.
# A known positive control, methyl nicotinate, was applied to the skin at a concentration of 1/10% in alcohol. […] The vascular dynamics are such that when the blood vessels dilate physical parameters follow Bernoulli's law. This states that as one increases the diameter of a tube containing a liquid to flow will increase but the pressure and the speed of the liquid will decrease. The laser Doppler device accurately measured these parameters.
# The test product was labeled as 10,000 ppm NO (nitric oxide). The study participants had 100 mg of the test product applied in a closed Hilltop chamber on the forearm. […]
# A Moor Instruments DRT4 Laser Doppler Blood Flow Monitor (Devon, England) was used in these studies. The laser Doppler technique measured blood flow in the microcapillaries of the skin that are close to the skin surface and the blood flow in underlying arterioles and venules that help to regulate skin temperature. […]
# [2] = Laser Doppler circulation in five human subjects, NO creams and controls (Example 8); type: in vivo; details: positive control formulation containing 0.1% methyl nicotinate
# Description: This example illustrates delivery of nitric oxide formulations to five human subjects, using procedures and formulations similar to those discussed in Example 5. Each person served as their own control for the testing. A Moor Instruments Laser Doppler was used to determine circulation. […] The formulations used produce positive, almost immediate results when applied to the skin which, in these studies, was manifested by vasodilatation of the cutaneous vascular system.
# For each subject, the following creams were applied: a negative control formulation (containing no NO), 0.010 gram of a 10,000 ppm NO formulation, 0.020 gram of a 10,000 ppm NO formulation, and a positive control formulation containing 0.1% methyl nicotinate. The formulations were prepared using procedures similar to those discussed in Example 1.
compound,measurement,setting,value
COC(=O)c1cccnc1 [methyl nicotinate],Laser Doppler response of positive control,[1],rapid response typical of the vasodilator
same,Vasodilatation (laser Doppler),[2],vasodilatation was observed
